These results are taken from patent US20100175140A1, “Leucine-rich repeat kinase (LRRK2) drosophila model for parkinson's disease: wildtype1 (WT1) and G2019S mutant flies” (The Johns Hopkins University, priority 2008, published 2010).

Each structure is given as a SMILES string.

This test relates to ddc-GAL4;G2019S-2 flies. The test can be described thus: Climbing assay (negative geotaxis) of LRRK2-G2019S transgenic flies treated with L-DOPA. The class given is in vivo, Drosophila melanogaster. The settings on record: 5 weeks of age, 1 mM L-DOPA for 10 days, P<0.05 vs untreated (FIG. 2E). The text has this: We determined locomotor ability using a climbing assay (negative geotaxis assay) as described previously (23). Cohorts of 60 flies from each genotype were subjected to the assay weekly from 1 week to the time of death. The tested flies were age-matched, randomly selected, anesthetized, and placed in a vertical plastic column (length, 25 cm; diameter, 1.5 cm). After a 30-min recovery from CO2 exposure, flies were gently tapped to the bottom of the column. We counted and calculated the percentage of flies that could climb to or above the median line of the cylinder in 10 seconds. Each week, the assay was repeated three times.

For the molecule `N[C@@H](Cc1ccc(O)c(O)c1)C(=O)O` [L-DOPA], the “locomotor activity (climbing assay)” value is “significantly improved”.
